Results as given in US4853403A, “3-phenylthiomethylstyrene derivative, process for preparing the same, and antiallergic agent and tyrosinekinase inhibiting agent containing the same” (Kanegafuchi Kagaku Kogyo Kabushiki Kaisha, priority 1985, dated 1989).
Read-outs that look alike come from different tables or passages of the source.

Experiments:
[1] = target: T1, epidermal growth factor acceptor-tyrosinekinase complex (Homo sapiens, UniProt P00533); assay: Tyrosinekinase inhibitory activity (A-431 membrane specimen, EGF-stimulated, [γ-32P]ATP); type: biochemical, human (A-431 cell line derived from human cancerous cell); details: read-out: Inhibition rate (tyrosinekinase)
T1 construct: endogenous in cells; host or cells: A-431 (membrane specimen, not solubilized)
Description: Tyrosinekinase inhibitory activity of the compound of the present invention was measured by employing a method for measuring tyrosinekinase activity by G. Carpentor or by S. Cohen et al. [J. Biol. Chem., 254, 4884 (1979); J. Biol. Chem., 257, 1523 (1982)].
Cell line A-431 derived from human cancerous cell was cultured at 37° C. under the condition of 5% CO2 in Dulbecco's modified Eagle medium (made by DAINIPPON PHARMACEUTICAL CO., LTD.) containing 10% fetal bovine serum, 50 μg/ml of streptomycin, 50 IU/ml of penicillin G and 50 μg/ml of canamycin. The obtained cells were treated according to the above Cohen or Graham et al. to give membrane specimen containing epidermal growth factor acceptor-tyrosinekinase complex (hereinafter referred to as "membrane specimen"). The membrane specimen was employed in the following measurement without solubilization.
Sample dissolved in dimethylsulfoxide was added to a mixture of 20 mM of N-2-hydroxyethylpyperadino-N'-2-ethanesulfonate buffer (pH 7.4), 1 mM of MnCl2, 7.5 μg of bovine serum albumin and the membrane specimen (10 μg as protein). After incubation at 0° C. for 5 minutes, 100 ng of epidermal growth factor (hereinafter referred to as "EGF" was added and the mixture was further incubated at 0° C. for 15 minutes. [γ-^32 P]ATP (3000 Ci/mmol, 0.1 μCi) was added to make final volume of 70 μl. After incubation at 0° C. for 15 minutes, 50 μl of the reaction solution was soaked into Wattman 3 MM filter paper and immediately the reaction was stopped by 10% trichloroacetic acid-10 mM sodium pyrophosphate aqueous solution. The filter paper was sufficiently washed with the same solution and then washed with ethanol and dried. Radioactivity present in the filter paper was measured by liquid scintillation counter (A). Similarly, radioactivity was measured in case of the reaction without EGF (B), the reaction without the sample (C), and the reaction without both EGF and the sample (D) as a control.
Tyrosinekinase inhibition rate (%) was calculated by the following equation. [formula]

[2] = tested on: antigen-induced anaphylactic shock death; assay: Protective effect against anaphylactic shock in actively sensitized guinea pigs; type: in vivo, guinea pig (male); details: Cavia porcellus, oral, 30 minutes before antigen inhalation, survival 90 minutes or more, read-out: Protecting Effect (Number of test animal survivied/Number of test animal) (converted)
Description: [III] Protective effect against anaphylactic shock in actively sensitized guinea pigs
Antigen-induced anaphylactic shock death was observed according to John P. Devlin [Pulmonary and Antiallergic Drugs, John Wiley & Sons, 155 (1985)].
Each 100 mg/kg of ovalbumin dissolved in physiological saline was injected into peritoneal cavity and into gluteus of male guinea pigs weighing 250 to 350 g. 3 Days later, the animals were further injected intraperitoneally with ovalbumin (100 mg/kg). Those animals were employed for testing 3 to 4 weeks after first sensitization. Actively sensitized guinea pigs were pretreated subcutaneously with pyrilamine (1 mg/kg, 30 min.) to suppress histamine-dependent response and with propanolol ([…], 10 min.) to enhance the response induced by other than histamine before the antigen.
The animal was placed in a desiccator with a capacity of about 5 l and 0.5% aqueous solution of ovalbumin was inhaled with ultrasonic type nebulizer for five minutes. Anaphylactic shock death was observed and the animals survived for 90 minutes or more after antigen were estimated to be protected. The compounds of the present invention and antiasmatic agent were administered orally 30 minutes before the antigen inhalation. The control received vehicle alone similarly.

[3] = tested on: homologous passive cutaneous anaphylaxis (PCA); assay: Inhibitory activity against homologous passive cutaneous anaphylaxis (PCA) in rats; type: in vivo, rat (male Wistar); details: oral
Description: [II]Inhibitory activity against homologous passive cutaneous anaphylaxis (PCA) in rats
Antiserum was prepared according to I. Mota [Immunology, 7, 681(1964)] and the PCA reaction was conducted according to Maruyama et al. [Nippon yakurigakkaishi, 74, 179(1978)].
(1) Preparation of antiserum
An ovalbumin solution (2 mg/ml) was injected intramuscularly into both thighs of male Wistar rats weighing 200 to 260 g in a volume of 0.5 ml/100 g body weight, and pertussis vaccine (Bordetella pertussis, 2×10^10 /ml, Chibaken Kessei Kenkyujo) was intraperitoneally administered at 1 ml/rat. Twelve days later, blood was taken from posterior aorta under ether anesthesia and antiserum was stored at -80° C.
Group of 4 male Wistar rats weighing 180 to 210 g were employed. Back of the animals was shaved and each 0.05 ml of antiserum (1:32 dilution) was injected intradermally at four sites on the back. After 48 hours, 1 ml of a mixture of ovalbumin (1 mg/ml) and Evans blue (5 mg/ml) was injected intravenously into the tail. 30 Minutes later, the animals were killed under ether anesthesia. The blue-dyed area (mm^2) formed was measured and an inhibition rate(%) was calculated as compared with control.
Test compound suspended in a 2.5% acacia containing 0.2% Tween 80 was administered orally in a volume of 0.5 ml/100 g body weight 1 hour before the antigen. Tranilast was administered orally 30 minutes before the antigen.

[4] = tested on: SRS-A biosynthesis or release; assay: SRS-A biosynthesis or release inhibitory activity (ovalbumin-challenged sensitized guinea pig lung fragments, bioassay on guinea pig ileum); type: cell-based, guinea pig (male Hartley); details: Cavia porcellus, read-out: Inhibition rate (SRS-A biosynthesis or release)
Description: [I] SRS-A biosynthesis or release inhibitory activity
SRS-A biosynthesis or release inhibitory activity was examined according to Koda et al. [Nippon yakurigakkaishi, 66, 194(1970)] and Kono-Watanabe et al. [J. Immunology, 125, 946(1980)].
Male Hartley guinea pigs weighing 350 to 450 g were sensitized by injecting once each 1 ml of an ovalbumin (100 mg/ml) into gluteus and peritoneal cavity. Four weeks after the injection, the animals were killed and then immediately the lung was perfused with cooled Tyrode's solution to remove blood. The lung was chopped into about 2 mm fragments and 500 mg of the fragments were suspended in 4.84 ml of Tyrode's solution, to which 0.01 ml of the test compound dissolved in dimethylsulfoxide (DMSO) was added. After incubation at 37° C. for 10 minutes, 0.15 ml of an ovalbumin (10 mg/ml) was added, followed by incubation at 37° C. for 20 minutes. In control, DMSO was added and the reaction was conducted in the same manner. The reaction mixture was filtered with gauze.
An amount of SRS-A in the filtrate was bioassayed using guinea pig ileum; i.e. the ileum (length: 2 to 3 cm) was suspended in Magnus tube containing aerated Tyrode's solution at 31° C. and, after the plateau of contraction was obtained, an amount of SRS-A in the above filtrate was bioassayed in the presence of 1 μM of atropine and 1 μM of pyrilamine. Inhibition rate (%) was calculated from a contraction in control as 100.

[5] = 100 mg/kg, 1 hour before the antigen

T1 sequence (P00533 25-1210): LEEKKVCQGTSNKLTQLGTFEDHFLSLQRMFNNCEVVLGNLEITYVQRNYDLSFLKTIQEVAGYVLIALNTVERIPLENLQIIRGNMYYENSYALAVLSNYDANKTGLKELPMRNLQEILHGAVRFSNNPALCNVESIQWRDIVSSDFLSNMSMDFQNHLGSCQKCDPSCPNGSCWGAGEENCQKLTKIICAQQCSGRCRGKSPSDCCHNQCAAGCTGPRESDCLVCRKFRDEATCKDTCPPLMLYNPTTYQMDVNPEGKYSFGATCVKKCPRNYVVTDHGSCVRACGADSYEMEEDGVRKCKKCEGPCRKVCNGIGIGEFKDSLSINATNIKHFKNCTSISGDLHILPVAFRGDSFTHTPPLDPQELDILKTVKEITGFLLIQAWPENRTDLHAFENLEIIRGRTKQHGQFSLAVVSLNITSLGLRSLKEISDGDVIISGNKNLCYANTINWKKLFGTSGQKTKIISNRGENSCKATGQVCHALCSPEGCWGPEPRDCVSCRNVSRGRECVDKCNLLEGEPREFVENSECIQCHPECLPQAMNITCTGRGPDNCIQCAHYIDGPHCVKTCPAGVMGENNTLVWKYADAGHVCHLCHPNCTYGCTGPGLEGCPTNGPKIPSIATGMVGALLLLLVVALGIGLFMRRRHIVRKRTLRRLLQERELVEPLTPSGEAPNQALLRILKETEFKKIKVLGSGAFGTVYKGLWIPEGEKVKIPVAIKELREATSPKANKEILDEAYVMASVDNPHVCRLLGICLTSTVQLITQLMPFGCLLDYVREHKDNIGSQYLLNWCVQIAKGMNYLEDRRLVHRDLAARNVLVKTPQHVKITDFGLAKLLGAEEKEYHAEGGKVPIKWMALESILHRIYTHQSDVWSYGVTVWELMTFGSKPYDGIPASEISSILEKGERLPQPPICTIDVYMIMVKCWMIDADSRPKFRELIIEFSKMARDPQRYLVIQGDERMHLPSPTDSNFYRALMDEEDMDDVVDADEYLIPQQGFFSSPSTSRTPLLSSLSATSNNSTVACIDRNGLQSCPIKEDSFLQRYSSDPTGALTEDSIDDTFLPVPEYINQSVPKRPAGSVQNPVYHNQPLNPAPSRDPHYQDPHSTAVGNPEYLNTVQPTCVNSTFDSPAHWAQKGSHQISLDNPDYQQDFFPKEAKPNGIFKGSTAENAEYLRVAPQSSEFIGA
T1 sequence (P01132 977-1029 partner limits assumed): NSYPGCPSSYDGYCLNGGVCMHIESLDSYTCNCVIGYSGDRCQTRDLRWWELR

SMILES | inhibition at 10 µM ([1]; 10 μM) [%] | responders at 100 mg/kg [2] [%] | responders at 30 mg/kg [2] [%] | other results
CCOc1cc(C=C(C#N)C(N)=O)cc(CSc2ccc([N+](=O)[O-])cc2)c1O [III] | 42 | 25 | – | –
CCOc1cc(C=C(C#N)C(N)=O)cc(CSc2ccc(OC)cc2)c1O [II] | 42 | – | 75 | –
CCOc1cc(C=C(C#N)C(N)=O)cc(CSc2ccc(Br)cc2)c1O [IV] | 74 | 25 | – | –
CCOc1cc(C=C(C#N)C(N)=O)cc(CSc2ccc(C)cc2)c1O [IX] | 58 | – | 50 | –
CCOc1cc(C=C(C#N)C(N)=O)cc(CSc2ccccc2)c1O [I] | 100 | 40 | – | Inhibition rate (PCA reaction, blue-dyed area) [3, 5]: 21%; inhibition at 100 µM [1]: 100%; inhibition at 100 µM [4]: 92%
CCOc1cc(C=C(C#N)C(N)=O)cc(CSc2cccc(OC)c2)c1O [VIII] | 72 | 25 | – | –
CCOc1cc(C=C(C#N)C(N)=O)cc(CSc2ccccc2OC)c1O [VII] | 77 | – | 75 | –
CCOc1cc(C=C(C#N)C(N)=O)cc(CSCCCc2ccccc2)c1O [VI] | 55 | 25 | – | –
CCOc1cc(C=C(C#N)C(N)=O)cc(CSc2c(F)c(F)c(F)c(F)c2F)c1O [V] | 60 | – | 50 | –
CCOc1cc(C=C(C#N)C(N)=O)cc(CSc2ccccc2)c1OC [XIII] | 31 | – | 50 | –
COc1cc(C=C(C#N)C(N)=O)cc(CSc2ccccc2)c1O [XII] | – | – | 50 | inhibition at 10 µM [1]: 86%
CCOc1cc(C=C(C#N)C(N)=O)cc(CSc2ccc(Cl)cc2)c1O [XIV] | 29 | – | 100 | –
N#CC(=Cc1cc(O)c(O)c(CSc2ccccc2)c1)C(N)=O [XIX] | 100 | 25 | – | –
CCOc1cc(C=C(C#N)C(N)=O)cc(CSc2cccc(Cl)c2)c1O [XI] | 54 | 25 | – | –
CCOc1cc(C=C(C#N)C(N)=O)cc(CSc2ccc(C(C)(C)C)cc2)c1O [XVIII] | 37 | – | 75 | –
CCOc1cc(C=C(C#N)C(N)=O)cc(CSc2ccccc2)c1OC(C)=O [XVII] | 36 | 25 | – | –
CCOc1cc(C=C(C#N)C(N)=O)cc(CSc2ccccc2)c1OC(=O)c1ccccc1 [XVI] | 40 | 25 | – | –
CCOc1cc(C=C(C#N)C(N)=O)cc(CSc2ccc(Cl)c(Cl)c2)c1O [XV] | 69 | – | 100 | –

SMILES | inhibition at 10 µM ([1]; 10 μM) [%] | responders at 100 mg/kg [2] [%] | responders at 30 mg/kg [2] [%] | other results
CCOC(=O)C(=Cc1cc(CSc2ccc(C(C)(C)C)cc2)c(O)c(OCC)c1)S(C)(=O)=O [XXIII] | 40 | 25 | – | –
CCOC(=O)C(=Cc1cc(CSc2ccccc2)c(O)c(OCC)c1)S(C)(=O)=O [XXII] | 64 | 20 | – | Inhibition rate (PCA reaction, blue-dyed area) [3, 5]: 26%; inhibition at 100 µM [1]: 80%; inhibition at 100 µM [4]: 27%
CCOc1cc(C=C2CCOC2=O)cc(CSc2ccccc2)c1O [XXIV] | 33 | 20 | – | Inhibition rate (PCA reaction, blue-dyed area) [3, 5]: 26%; inhibition at 100 µM [1]: 50%; inhibition at 100 µM [4]: 28%
CCOc1cc(C=C2CCNC2=O)cc(CSc2ccc(OC)cc2)c1OC [XXIX] | 30 | 25 | – | –
CCOc1cc(C=C(C#N)C(N)=O)cc(CSc2ccccc2C(=O)OC)c1OC(C)=O [XXI] | 31 | 25 | – | –
COc1cc(C=C2CCNC2=O)cc(CSc2ccc(C)cc2)c1O [XXVIII] | 55 | 25 | – | –
O=C1OCCC1=Cc1cc(O)c(O)c(CSc2ccc([N+](=O)[O-])cc2)c1 [XXVI] | 35 | 25 | – | –
CCOc1cc(C=C2CCOC2=O)cc(CSc2ccc(Cl)c(Cl)c2)c1O [XXV] | 27 | – | 75 | –
CCOc1cc(C=C2C(=O)NN(c3ccccc3)C2=O)cc(CSc2ccc(Br)cc2)c1O [XXXIII] | 71 | – | 75 | –
COc1cc(C=C2C(=O)NN(c3ccccc3)C2=O)cc(CSc2ccccc2)c1O [XXXII] | 100 | 25 | – | –
O=C1NN(c2ccccc2)C(=O)C1=Cc1cc(O)c(O)c(CSc2ccccc2)c1 [XXXIV] | 96 | – | 50 | –
CCOc1cc(C=C2C(=O)NN(c3ccccc3)C2=O)cc(CSc2ccc(Cl)cc2)c1O [XXXVI] | 91 | 25 | – | –
CCCCOc1cc(C=C2C(=O)NN(c3ccccc3)C2=O)cc(CSc2ccccc2)c1O [XXXV] | 100 | 25 | – | –
CCOc1cc(C=C2CCNC2=O)cc(CSc2ccccc2)c1OC(=O)c1ccccc1 [XXX] | 32 | – | 50 | –
CCOc1cc(C=C(C#N)C(N)=O)cc(CSc2ccc(O)cc2)c1O [XX] | 91 | 25 | – | –
CCOc1cc(C=C(C#N)C(N)=O)cc(CSc2c(Cl)cccc2Cl)c1O [X] | 44 | – | 75 | –
Cn1c(=O)c2[nH]cnc2n(C)c1=O [theophylline, reference compound] | – | – | 50 | –
COc1ccc(/C=C/C(=O)Nc2ccccc2C(=O)O)cc1OC [tranilast, reference compound] | – | 0 | – | Inhibition rate (PCA reaction, blue-dyed area) ([3]; 300 mg/kg, 30 minutes before the antigen (tranilast)): 40%
